Measurements reported in patent publication US20250186432A1, “SPLEEN TYROSINE KINASE INHIBITOR, COMPOSITION, AND METHODS OF USE” (PURDUE RESEARCH FOUNDATION, priority 2022, published 2025).
Where two headings read alike, the source gives them in different places.

Legend:
IGF1R = IGF1R (Homo sapiens, UniProt P08069); assay: ADP-Glo kinase inhibition assay, IGF1R
HGFR = HGFR (Homo sapiens, UniProt P08581); assay: ADP-Glo kinase inhibition assay, HGFR; assay type: biochemical; details: for IC50: ADP-Glo
Sequence of HGFR (P08581 25-1390): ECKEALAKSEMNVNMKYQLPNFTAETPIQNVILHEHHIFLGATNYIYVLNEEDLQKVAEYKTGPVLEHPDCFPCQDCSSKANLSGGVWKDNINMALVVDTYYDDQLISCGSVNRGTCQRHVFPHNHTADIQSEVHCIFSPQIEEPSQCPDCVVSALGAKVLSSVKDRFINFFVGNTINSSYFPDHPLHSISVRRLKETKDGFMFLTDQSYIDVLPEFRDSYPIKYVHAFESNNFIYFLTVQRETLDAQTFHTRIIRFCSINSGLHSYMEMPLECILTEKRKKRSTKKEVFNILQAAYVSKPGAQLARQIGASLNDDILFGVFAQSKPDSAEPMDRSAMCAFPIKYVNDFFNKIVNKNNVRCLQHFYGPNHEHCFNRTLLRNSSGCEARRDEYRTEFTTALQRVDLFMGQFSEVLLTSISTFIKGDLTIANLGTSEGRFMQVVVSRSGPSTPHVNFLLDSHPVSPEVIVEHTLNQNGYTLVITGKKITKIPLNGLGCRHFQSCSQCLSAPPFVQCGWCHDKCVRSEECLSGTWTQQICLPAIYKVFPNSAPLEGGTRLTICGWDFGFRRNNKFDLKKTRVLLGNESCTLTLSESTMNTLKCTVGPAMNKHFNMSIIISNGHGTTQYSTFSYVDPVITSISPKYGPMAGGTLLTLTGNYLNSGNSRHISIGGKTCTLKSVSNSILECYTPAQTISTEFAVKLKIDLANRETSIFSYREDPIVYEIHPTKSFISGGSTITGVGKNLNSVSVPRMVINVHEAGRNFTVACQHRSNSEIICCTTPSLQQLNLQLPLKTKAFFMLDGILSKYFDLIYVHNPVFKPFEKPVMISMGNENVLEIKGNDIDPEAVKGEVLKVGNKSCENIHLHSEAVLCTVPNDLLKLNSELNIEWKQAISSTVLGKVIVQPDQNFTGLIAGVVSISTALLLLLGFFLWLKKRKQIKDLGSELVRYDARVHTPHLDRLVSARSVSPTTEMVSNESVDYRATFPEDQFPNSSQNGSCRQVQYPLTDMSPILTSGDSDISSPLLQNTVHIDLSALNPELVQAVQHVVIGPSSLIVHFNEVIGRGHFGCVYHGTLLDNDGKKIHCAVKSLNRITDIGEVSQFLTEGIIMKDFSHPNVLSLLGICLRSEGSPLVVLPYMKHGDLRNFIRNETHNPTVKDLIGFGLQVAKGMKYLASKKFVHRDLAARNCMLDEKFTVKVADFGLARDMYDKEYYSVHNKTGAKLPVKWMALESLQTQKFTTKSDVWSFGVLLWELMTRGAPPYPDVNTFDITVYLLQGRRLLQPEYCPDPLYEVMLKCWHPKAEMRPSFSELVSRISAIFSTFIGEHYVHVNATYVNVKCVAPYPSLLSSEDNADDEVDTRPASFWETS

Syk = Syk (Homo sapiens, UniProt P43405); assay: ADP-Glo kinase inhibition assay, Syk
VEGFR [1] = target: VEGFR (Homo sapiens, UniProt P35916); assay: ADP-Glo kinase inhibition assay, VEGFR; assay type: biochemical; details: ADP-Glo
FGFR3 = FGFR3 (Homo sapiens, UniProt P22607); assay: ADP-Glo kinase inhibition assay, FGFR3
Sequence of FGFR3 (P22607 23-806): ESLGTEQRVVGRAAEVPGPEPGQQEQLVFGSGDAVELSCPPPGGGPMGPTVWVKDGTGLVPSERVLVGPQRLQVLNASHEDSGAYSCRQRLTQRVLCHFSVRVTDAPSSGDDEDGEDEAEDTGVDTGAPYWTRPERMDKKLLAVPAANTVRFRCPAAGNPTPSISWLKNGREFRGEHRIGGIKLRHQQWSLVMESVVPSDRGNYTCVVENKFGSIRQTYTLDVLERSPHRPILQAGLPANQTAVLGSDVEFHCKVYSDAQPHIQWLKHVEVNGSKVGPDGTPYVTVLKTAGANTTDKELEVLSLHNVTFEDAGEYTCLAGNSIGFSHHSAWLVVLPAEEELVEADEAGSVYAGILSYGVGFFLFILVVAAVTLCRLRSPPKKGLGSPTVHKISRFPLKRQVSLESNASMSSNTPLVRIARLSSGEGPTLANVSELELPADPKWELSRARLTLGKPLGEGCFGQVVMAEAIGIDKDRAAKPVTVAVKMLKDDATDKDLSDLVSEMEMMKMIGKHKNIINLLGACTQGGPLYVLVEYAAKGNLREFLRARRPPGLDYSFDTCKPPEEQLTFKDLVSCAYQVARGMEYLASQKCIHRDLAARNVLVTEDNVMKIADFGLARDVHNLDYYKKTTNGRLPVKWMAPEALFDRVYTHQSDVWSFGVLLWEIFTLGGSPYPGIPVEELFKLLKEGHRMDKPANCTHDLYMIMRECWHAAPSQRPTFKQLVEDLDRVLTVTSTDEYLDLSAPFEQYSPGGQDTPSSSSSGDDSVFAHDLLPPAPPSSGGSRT

EGFR = EGFR (Homo sapiens, UniProt P00533); assay: ADP-Glo kinase inhibition assay, EGFR; assay type: biochemical; details: for IC50: ADP-Glo
Sequence of EGFR (P00533 25-1210): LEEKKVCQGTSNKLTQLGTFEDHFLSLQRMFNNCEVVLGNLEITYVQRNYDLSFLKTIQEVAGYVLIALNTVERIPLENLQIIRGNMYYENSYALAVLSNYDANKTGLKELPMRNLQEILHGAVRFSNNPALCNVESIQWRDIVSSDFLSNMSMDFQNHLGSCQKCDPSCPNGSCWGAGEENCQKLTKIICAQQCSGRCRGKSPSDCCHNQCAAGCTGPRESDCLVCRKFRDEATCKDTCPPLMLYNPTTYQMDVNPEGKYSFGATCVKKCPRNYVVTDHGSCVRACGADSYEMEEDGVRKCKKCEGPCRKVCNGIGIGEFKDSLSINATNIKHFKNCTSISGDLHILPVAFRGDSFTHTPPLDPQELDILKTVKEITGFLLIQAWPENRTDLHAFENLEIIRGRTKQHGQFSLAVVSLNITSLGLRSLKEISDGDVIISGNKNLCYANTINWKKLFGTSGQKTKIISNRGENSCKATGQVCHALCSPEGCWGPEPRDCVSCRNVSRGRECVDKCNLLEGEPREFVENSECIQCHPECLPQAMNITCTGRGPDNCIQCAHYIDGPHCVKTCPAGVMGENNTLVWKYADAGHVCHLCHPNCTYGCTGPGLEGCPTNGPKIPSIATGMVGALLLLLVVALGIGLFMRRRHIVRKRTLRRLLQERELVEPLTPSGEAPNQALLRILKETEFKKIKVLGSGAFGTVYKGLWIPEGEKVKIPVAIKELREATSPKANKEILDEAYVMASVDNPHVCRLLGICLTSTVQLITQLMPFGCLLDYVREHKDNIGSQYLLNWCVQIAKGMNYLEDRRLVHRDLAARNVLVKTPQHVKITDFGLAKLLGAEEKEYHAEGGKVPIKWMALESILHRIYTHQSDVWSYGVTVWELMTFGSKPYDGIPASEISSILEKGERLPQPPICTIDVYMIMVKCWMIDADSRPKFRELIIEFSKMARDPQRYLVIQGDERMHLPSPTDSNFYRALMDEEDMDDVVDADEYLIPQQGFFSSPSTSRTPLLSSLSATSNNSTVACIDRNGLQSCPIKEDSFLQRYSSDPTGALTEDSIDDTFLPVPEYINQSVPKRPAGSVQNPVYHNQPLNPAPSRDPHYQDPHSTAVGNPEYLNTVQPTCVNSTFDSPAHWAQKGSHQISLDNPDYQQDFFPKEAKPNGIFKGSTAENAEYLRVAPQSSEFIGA

[2] = tested on: Band 3 tyrosine phosphorylation; assay: Inhibition of Band 3 tyrosine phosphorylation (cellular potency); assay type: cell-based, human
LogP = assay type: physicochemical
Text: The compound can have a CLogP value between about 2.0 and about 5.0 (e.g., between 2.0 and about 5.0, about 2.0 and 5.0, or 2.0 and 5.0). In certain embodiments, e.g., compound S1213, the compound has a CLogP value of between about 1.0 and about 2.0 (e.g., between 1.0 and about 2.0, about 1.0 and 2.0, or 1.0 and 2.0). The term “cLogP” refers to a calculated partition coefficient which in the physical sciences, is the ratio of concentrations of a compound in a mixture of the two immiscible phases at equilibrium. These coefficients are a measure of the difference in solubility of the compound in these two phases. In general, this is a measure of hydrophobicity of the compound as one phase is aqueous (traditionally water) and the other is hydrophobic (traditionally octanol). Higher values indicate greater partitioning of the compound into the hydrophobic phase and support increased hydrophobicity.

VEGFR [3] = assay: ADP-Glo kinase inhibition assay, VEGFR; assay type: biochemical; details: selectivity ratio
[4] = Absolute oral bioavailability; details: in vivo, read-out: Absolute oral bioavailability F
[5] = pTyr, read-out: Inhibition of Band 3 Tyrosine Phosphorylation EC50, pTyr
[6] = Homo sapiens, read-out: Inhibition of Band 3 Tyrosine Phosphorylation EC50, pTyr
[7] = Homo sapiens, read-out: Inhibition of Band 3 Tyrosine Phosphorylation EC50, pTyr8
[8] = Homo sapiens, read-out: Inhibition of Band 3 Tyrosine Phosphorylation EC50, pTyr359

Sequence of IGF1R (P08069 31-1367): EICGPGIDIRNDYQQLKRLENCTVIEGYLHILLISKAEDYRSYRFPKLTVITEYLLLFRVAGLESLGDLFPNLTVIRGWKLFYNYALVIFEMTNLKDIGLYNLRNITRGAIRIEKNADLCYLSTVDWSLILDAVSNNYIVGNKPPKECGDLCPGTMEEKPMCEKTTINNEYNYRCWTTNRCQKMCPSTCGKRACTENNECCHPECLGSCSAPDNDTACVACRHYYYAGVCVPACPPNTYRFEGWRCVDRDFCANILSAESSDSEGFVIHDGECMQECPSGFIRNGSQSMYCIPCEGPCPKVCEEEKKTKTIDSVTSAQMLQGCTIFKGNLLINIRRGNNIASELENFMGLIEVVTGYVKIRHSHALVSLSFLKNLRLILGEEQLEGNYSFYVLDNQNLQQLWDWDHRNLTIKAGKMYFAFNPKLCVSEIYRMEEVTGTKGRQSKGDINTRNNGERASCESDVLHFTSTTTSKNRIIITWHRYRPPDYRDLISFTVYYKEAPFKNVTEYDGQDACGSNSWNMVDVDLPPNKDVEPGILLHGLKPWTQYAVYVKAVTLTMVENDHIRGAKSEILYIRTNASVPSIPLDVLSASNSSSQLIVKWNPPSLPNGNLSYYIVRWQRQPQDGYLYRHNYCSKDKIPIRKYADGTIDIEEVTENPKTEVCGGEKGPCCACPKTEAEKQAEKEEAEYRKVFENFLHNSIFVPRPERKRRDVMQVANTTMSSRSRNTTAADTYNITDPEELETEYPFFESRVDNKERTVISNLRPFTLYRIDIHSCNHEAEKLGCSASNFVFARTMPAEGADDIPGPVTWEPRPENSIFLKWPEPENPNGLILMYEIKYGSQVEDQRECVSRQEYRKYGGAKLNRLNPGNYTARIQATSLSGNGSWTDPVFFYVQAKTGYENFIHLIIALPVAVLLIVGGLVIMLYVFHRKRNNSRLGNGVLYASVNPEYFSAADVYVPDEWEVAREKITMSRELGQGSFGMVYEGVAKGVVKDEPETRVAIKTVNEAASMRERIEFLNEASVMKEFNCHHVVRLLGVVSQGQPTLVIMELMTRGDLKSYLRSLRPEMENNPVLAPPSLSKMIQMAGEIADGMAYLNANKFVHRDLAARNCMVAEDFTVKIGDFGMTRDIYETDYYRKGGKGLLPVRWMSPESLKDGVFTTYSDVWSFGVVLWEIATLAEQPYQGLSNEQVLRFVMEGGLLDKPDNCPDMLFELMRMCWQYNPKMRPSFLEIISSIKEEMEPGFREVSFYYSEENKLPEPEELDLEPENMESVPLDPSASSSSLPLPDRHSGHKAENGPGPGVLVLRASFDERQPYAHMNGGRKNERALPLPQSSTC

IC50 (IGF1R) [µM] | IC50 (HGFR) [µM] | IC50 (Syk) [µM] | IC50 (VEGFR [1]) [µM] | IC50 (FGFR3) [µM] | IC50 (EGFR) [µM] | Structure (SMILES) | other results
1.01 | 1.03 | 37.1 | 0.335 | 1.81 | – | CCc1cc2c(cc1N1CCC(N3CCOCC3)CC1)C(C)(C)c1[nH]c3cc(C#N)ccc3c1C2=O [Alectinib] | –
– | – | – | – | – | – | CCS(=O)(=O)N1CCN(c2ccc(Nc3ncc(C(N)=O)c(NC4CC4)n3)cc2)CC1 [Cerdulatinib] | IC50 (Syk; read-out: IC50 Syk, ADP-Glo): 0.032 µM
– | – | – | – | – | – | COc1cc(Nc2ncc(F)c(Nc3ccc4c(n3)NC(=O)C(C)(C)O4)n2)cc(OC)c1OC [Compound R406] | EC50 [2, 5]: 5 µM
– | – | 0.177 | 4 | – | 8 | COc1ccc(Nc2nc(-c3ccc4c(CN5CC(O)C5)c[nH]c4c3)cn3ccnc23)cc1OC [Compound S970, 1-((6-(8-((3,4-dimethoxyphenyl)amino)imidazo[1,2-a]pyrazin-6-yl)-1H-indol-3-yl)methyl)azetidin-3-ol] | Ratio of IC50 SYK/Kinases: EGFR (EGFR; selectivity ratio): 44; Ratio of IC50 SYK/Kinases: IGF1R (IGF1R; selectivity ratio): 55; LogP (LogP): 2.29; Ratio of IC50 SYK/Kinases: HGFR (HGFR; selectivity ratio): 220; EC50 [2, 6]: 1.5 µM; EC50 [2, 7]: 4.4 µM; EC50 [2, 8]: 10 µM; Ratio of IC50 SYK/Kinases: SYK (Syk; selectivity ratio): 1; Ratio of IC50 SYK/Kinases: VEGFR3 (VEGFR [3]): 22; Ratio of IC50 SYK/Kinases: FGF3R (FGFR3; selectivity ratio): 55
> 5 | > 40 | 0.08 | 2.1 | – | 0.65 | COc1ccc(Nc2nc(-c3ccc4c(CN5CC(O)C5)cn(CO)c4c3)cn3ccnc23)cc1OC [Compound S970D] | LogP (LogP): 2.28; EC50 [2, 6]: 0.716 µM; EC50 [2, 7]: 0.572 µM
0.9 | > 40 | 0.0022 | 0.075 | – | 0.14 | COc1ccc(Nc2nc(-c3ccc4c(CN5CC(O)C5)c[nH]c4c3)cnc2C(N)=O)cc1OC [Compound S1115, 3-((3,4,-methoxyphenyl)amino)-5-(3-((3-hydroxyazetidin-1-yl)methyl)-1H-indol-6-yl)pyrazine-2-carboxamide] | bioavailability [4]: 2%; LogP (LogP): 1.42; EC50 [2, 6]: 0.226 µM; EC50 [2, 7]: 0.262 µM; EC50 [2, 8]: 1.59 µM
> 20 | > 20 | 0.025 | > 2 | > 3 | 25 | COc1ccc(Nc2nc(-c3ccc4c(CN5CC(N)C5)c[nH]c4c3)cnc2C(N)=O)cc1OC [Compound S1213] | bioavailability [4]: 2%; LogP (LogP): 1.04; EC50 [2, 6]: 1.5 µM
– | – | 0.53 | – | – | – | NC(=O)c1ncc(-c2ccc3c(CN4CC(N)C4)c[nH]c3c2)nc1Nc1cccc(-n2nccn2)c1 [Compound S1214] | –
– | – | 0.05 | – | – | – | COc1ccc(Nc2nc(-c3ccc4c(CN5CC(C(=O)O)C5)c[nH]c4c3)cnc2C(N)=O)cc1OC [Compound S1219] | bioavailability [4]: 1.1%; LogP (LogP): 1.54
> 10 | – | 0.147 | > 10 | > 5 | 4.3 | COc1ccc(Nc2nc(-c3ccc4c(CCCO)cn(C)c4c3)cnc2C(N)=O)cc1OC [Compound S2053] | bioavailability [4]: 8%; LogP (LogP): 2.63
– | – | 0.68 | – | – | – | COc1ccc(Nc2nc(-c3ccc4c(CCCN)cn(C)c4c3)cnc2C(N)=O)cc1OC [Compound S2054] | –
0.813 | – | – | 0.244 | 9.9 | – | c1cn2cc(-c3ccc4cn[nH]c4c3)nc(Nc3ccc(N4CCOCC4)cc3)c2n1 [Entospletinib] | EC50 [2, 5]: 3 µM
– | – | – | 0.441 | 0.246 | – | CN1CCN(c2ccc(C(=O)Nc3n[nH]c4ccc(Cc5cc(F)cc(F)c5)cc34)c(NC3CCOCC3)c2)CC1 [Entrectinib] | –
0.638 | 1.57 | – | 0.0187 | 0.0914 | 0.342 | COc1cc(Nc2ncc(F)c(Nc3ccc4c(n3)N(COP(=O)(O)O)C(=O)C(C)(C)O4)n2)cc(OC)c1OC [Fostamtinib] | –
– | – | 0.005 to 0.046 | – | – | – | N#CCC1CCN(c2nc(Nc3ccc(N4CCC(O)CC4)cc3)c3c(=O)[nH]ncc3n2)CC1 [Gusacitinib] | –
2.43 | > 100 | – | 0.778 | 69.4 | 4.27 | Nc1cncc(-c2cn3ccnc3c(Nc3ccc(N4CCN(C5COC5)CC4)cc3)n2)n1 [Lanraplenib] | EC50 [2, 6]: 3 µM
> 100 | > 100 | 23.6 | 19.6 | 1.98 | 6.37 | O=C(Nc1cnn2ccc(N3CCC[C@@H]3c3cc(F)ccc3F)nc12)N1CC[C@H](O)C1 [Larotrectinib] | –
– | – | – | – | – | – | NC(=O)c1cnc(N[C@@H]2CCCC[C@@H]2N)nc1Nc1cccc(-n2nccn2)c1 [PRT062067] | EC50 [2, 5]: 0.3 µM
– | 35 | – | 5 | – | 17.6 | Oc1cc(O)cc(/C=C/c2ccc(O)c(O)c2)c1 [Piceatannal] | IC50 (IGF1R; read-out: IC50 IGF1R, ADP-Glo): 21.5 µM; IC50 (FGFR3; read-out: IC50 FGFR3, ADP-Glo): 24.7 µM
> 100 | 3.02 | 13.2 | 0.00024 | 0.0844 | 9.93 | CCn1c(=O)c(-c2cc(NC(=O)Nc3ccccc3)c(F)cc2Br)cc2cnc(NC)cc21 [Ripretinib] | –
– | – | – | – | – | – | Cc1nn(-c2ccnc(Nc3ccc(-c4csc5c(=O)cc(N6CCOCC6)oc45)cc3)n2)cc1CN1CCC1 [SRX3207] | IC50 (Syk; read-out: IC50 Syk, ADP-Glo): 0.0107 µM
– | 69.4 | – | 4.21 | – | 27 | NCCNc1ncc(C(N)=O)c(Nc2cccc(C(F)(F)F)c2)n1 [Syk II] | IC50 (IGF1R; read-out: IC50 IGF1R, ADP-Glo): 13.5 µM; IC50 (Syk; read-out: IC50 Syk, ADP-Glo): 0.0703 µM; IC50 (FGFR3; read-out: IC50 FGFR3, ADP-Glo): 36.9 µM
– | – | – | 0.0912 | – | – | COc1ccc(-c2cc3nccn3c(Nc3ncccc3C(N)=O)n2)cc1OC [Syk IV] | –
– | – | – | – | – | – | NC(=O)c1nnc(N[C@@H]2CCCC[C@@H]2N)nc1Nc1cccc2cc[nH]c12 [Syk-IN-1] | IC50 (Syk; read-out: IC50 Syk, ADP-Glo): 0.031 µM
– | – | – | – | – | – | Cc1cc(Nc2nccc(C)n2)cc(-c2cnc([C@@]3(O)CC[C@H](C(=O)O)C(C)(C)C3)s2)c1 [Syk-IN-3] | IC50 (Syk; read-out: IC50 Syk, ADP-Glo): 0.001 µM
– | 3.16 | – | 0.15 | – | 27.6 | Cn1cc(-c2nc(N[C@@H]3CCCC[C@@H]3N)c(F)c3c2C(=O)NC3)cn1 [TAK-659] | IC50 (FGFR3; read-out: IC50 FGFR3, ADP-Glo): 0.019 µM
– | – | – | – | – | – | Cc1cc(Nc2nc(N[C@@H]3CCOC[C@@H]3N)nnc2C(N)=O)cc2cn(C(C)(C)C)nc12 [TAS05567] | IC50 (Syk; read-out: IC50 Syk, ADP-Glo): 0.00037 µM
> 100 | 11.1 | 4.93 | 1.96 | 66.5 | 0.0388 | Cc1cc(Nc2ncnc3ccc(NC4=NC(C)(C)CO4)cc23)ccc1Oc1ccn2ncnc2c1 [Tucatinib] | –

Structure (SMILES) | IC50 (IGF1R) [µM] | IC50 (HGFR) [µM] | IC50 (Syk) [µM] | IC50 (VEGFR [1]) [µM] | IC50 (FGFR3) [µM] | IC50 (EGFR) [µM] | other results
Cn1cc(-c2cc3c(N4CCN(c5ncc([C@@](C)(N)c6ccc(F)cc6)cn5)CC4)ncnn3c2)cn1 [Avapritinib] | > 100 | 25 | 0.28 | 2.58 | 1.02 | 8.73 | –
